# What was measured:
# system Xc^− [1] = target: T1, system Xc^− (Homo sapiens, UniProt Q9UPY5); assay: Cystine-induced glutamate release assay; type: cell-based; set-up: endogenous in cells; host or cells: H4 cells; conditions: H4 cells, sodium-free HEPES buffer, 50 μM L-Cystine, 2 hours, Amplex Red glutamate readout; read-out: pIC50 Cystine-induced glutamate release assay (converted)
# T1 sequence (Q9UPY5 1-501): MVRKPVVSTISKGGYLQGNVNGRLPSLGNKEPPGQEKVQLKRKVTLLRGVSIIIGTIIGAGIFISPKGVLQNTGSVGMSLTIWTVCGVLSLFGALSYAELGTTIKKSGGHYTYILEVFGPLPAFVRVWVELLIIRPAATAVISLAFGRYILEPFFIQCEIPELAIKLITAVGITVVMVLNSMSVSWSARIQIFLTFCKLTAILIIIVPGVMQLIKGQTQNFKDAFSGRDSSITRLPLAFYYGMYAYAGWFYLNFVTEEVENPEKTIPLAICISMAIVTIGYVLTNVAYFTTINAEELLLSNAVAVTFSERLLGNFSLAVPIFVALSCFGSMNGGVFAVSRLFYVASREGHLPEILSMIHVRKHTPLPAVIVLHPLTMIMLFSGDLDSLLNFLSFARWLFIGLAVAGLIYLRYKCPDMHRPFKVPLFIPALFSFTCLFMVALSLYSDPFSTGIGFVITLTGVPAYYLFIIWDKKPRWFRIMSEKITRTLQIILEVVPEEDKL
# T1 sequence (P08195 1-529 partner): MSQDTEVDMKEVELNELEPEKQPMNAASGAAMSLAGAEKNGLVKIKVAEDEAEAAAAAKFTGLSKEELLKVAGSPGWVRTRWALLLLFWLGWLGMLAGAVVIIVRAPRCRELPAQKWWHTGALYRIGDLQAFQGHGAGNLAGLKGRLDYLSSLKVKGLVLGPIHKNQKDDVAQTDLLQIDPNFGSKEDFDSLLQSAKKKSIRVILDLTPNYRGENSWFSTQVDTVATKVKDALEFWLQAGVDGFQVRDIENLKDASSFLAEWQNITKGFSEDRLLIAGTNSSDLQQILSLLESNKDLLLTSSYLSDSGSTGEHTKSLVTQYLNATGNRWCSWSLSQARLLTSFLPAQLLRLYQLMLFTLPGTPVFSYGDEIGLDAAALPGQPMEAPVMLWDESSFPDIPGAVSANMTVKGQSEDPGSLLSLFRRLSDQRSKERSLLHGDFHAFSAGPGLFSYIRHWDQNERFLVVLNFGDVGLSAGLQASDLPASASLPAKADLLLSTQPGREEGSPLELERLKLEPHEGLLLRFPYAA
# Procedure, shortened: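 IC50 (reported as pIC50) normalized to DMSO 1% and Erastin 50 μM controls, from Amplex Red fluorescence of glutamate exported into supernatant. H4 cells were washed into sodium-free buffer to exclude EAAT transport, then given compound with 50 μM L-cystine for 2 h in the incubator.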
# system Xc^− [2] = target: T1, system Xc^−; assay: [^14C]L-Cystine uptake assay; type: cell-based; set-up: endogenous in cells; host or cells: H4 cells; conditions: H4 cells, sodium-free HEPES buffer, 0.5 μM L-[14C]Cystine and 4.5 μM L-Cystine, 1 hour at 37° C.; read-out: pIC50 [^14C] L-Cystine uptake assay (converted)
# Procedure, shortened: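 Compound effect is given as pIC50, taken between controls of 1% DMSO and 50 μM Erastin. Human H4 cells were pretreated 15 min with compound in sodium-free buffer, then took up 0.5 μM [14C]cystine with 4.5 μM cold cystine for 1 hour at 37° C, read by scintillation proximity counting.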
IC50 (system Xc^− [1]) [nM],IC50 (system Xc^− [2]) [nM],SMILES
15.8 to 39.8,< 15.8,"Cc1cc2c(c(F)n1)-c1cc(F)ccc1C(C)C(=O)N2CC(=O)Nc1ccc(Cl)c(F)c1 (single isomer, unassigned) [#405, N-(4-chloro-3-fluoro-phenyl)-2-[1,10-difluoro-3,7-dimethyl-6-oxo-7H-pyrido[3,4-a][3]benzazepin-5-yl]acetamide]"
15.8 to 39.8,15.8 to 39.8,"CC1C(=O)N(CC(=O)Nc2ccc(Cl)c(F)c2)c2cc(F)cc(F)c2-c2cccnc21 (single isomer, unassigned) [#406, N-(4-chloro-3-fluoro-phenyl)-2-[9,11-difluoro-5-methyl-6-oxo-5H-pyrido[2,3-d][1]benzazepin-7-yl]acetamide]"
39.8 to 100,39.8 to 100,"Cc1cc2c(cn1)-c1ncccc1C(C)C(=O)N2CC(=O)Nc1ccc(Cl)c(F)c1 (single isomer, unassigned) [#407, N-(4-chloro-3-fluoro-phenyl)-2-[8,13-dimethyl-9-oxo-3,10,14-triazatricyclo[9.4.0.0^2,7]pentadeca-1(15),2,4,6,11,13-hexaen-10-yl]acetamide]"
39.8 to 100,39.8 to 100,"Cc1cc2c(c(F)n1)-c1nccnc1C(C)C(=O)N2CC(=O)Nc1ccc(Cl)c(F)c1 (single isomer, unassigned) [#408, N-(4-chloro-3-fluoro-phenyl)-2-[15-fluoro-8,13-dimethyl-9-oxo-3,6,10,14-tetrazatricyclo[9.4.0.0^2,7]pentadeca-1(15),2,4,6,11,13-hexaen-10-yl]acetamide]"
15.8 to 39.8,15.8 to 39.8,"CC1C(=O)N(CC(=O)Nc2ccc(Cl)c(F)c2)c2cccc(F)c2-c2cccnc21 (single isomer, unassigned) [#409, N-(4-chloro-3-fluoro-phenyl)-2-[11-fluoro-5-methyl-6-oxo-5H-pyrido[2,3-d][1]benzazepin-7-yl]acetamide]"
15.8 to 39.8,15.8 to 39.8,"COc1cc2c(cn1)-c1cc(F)cnc1C(C)C(=O)N2CC(=O)Nc1ccc(Cl)c(F)c1 (single isomer, unassigned) [#410, N-(4-chloro-3-fluoro-phenyl)-2-[14-fluoro-5-methoxy-10-methyl-9-oxo-4,8,12-triazatricyclo[9.4.0.0^2,7]pentadeca-1(15),2(7),3,5,11,13-hexaen-8-yl]acetamide]"
< 15.8,< 15.8,"COc1cc2c(c(Cl)n1)-c1cccnc1C(C)C(=O)N2CC(=O)Nc1ccc(C(F)F)cc1 (single isomer, unassigned) [#411, 2-(3-chloro-5-methoxy-10-methyl-9-oxo-4,8,12-triazatricyclo[9.4.0.0^2,7]pentadeca-1(11),2(7),3,5,12,14-hexaen-8-yl]-N-[4-(difluoromethyl)phenyl)acetamide]"
39.8 to 100,15.8 to 39.8,"COc1cc2c(c(F)n1)-c1ncccc1C(C)C(=O)N2CC(=O)Nc1ccc(Cl)c(F)c1 (single isomer, unassigned) [#413, N-(4-chloro-3-fluoro-phenyl)-2-[15-fluoro-13-methoxy-8-methyl-9-oxo-3,10,14-triazatricyclo[9.4.0.0^2,7]pentadeca-1(11),2,4,6,12,14-hexaen-10-yl]acetamide]"
39.8 to 100,15.8 to 39.8,"CC1C(=O)N(CC(=O)Nc2ccc(Cl)c(F)c2)c2cc(Cl)cc(F)c2-c2nccnc21 (single isomer, unassigned) [#414, 2-[9-chloro-11-fluoro-5-methyl-6-oxo-5H-pyrazino[2,3-d][1]benzazepin-7-yl]-N-(4-chloro-3-fluoro-phenyl)acetamide]"
< 15.8,< 15.8,"COc1cnc2c(c1)-c1cnc(C)cc1N(CC(=O)Nc1ccc(Cl)c(F)c1)C(=O)C2C (single isomer, unassigned) [#415, N-(4-chloro-3-fluoro-phenyl)-2-[14-methoxy-5,10-dimethyl-9-oxo-4,8,12-triazatricyclo[9.4.0.0^2,7]pentadeca-1(15),2,4,6,11,13-hexaen-8-yl]acetamide]"
15.8 to 39.8,< 15.8,"CC1C(=O)N(CC(=O)Nc2ccc(C(F)F)cc2)c2cc(OC(F)F)nc(Cl)c2-c2cccnc21 (single isomer, unassigned) [#416, 2-[3-chloro-5-(difluoromethoxy)-10-methyl-9-oxo-4,8,12-triazatricyclo[9.4.0.0^2,7]pentadeca-1(15),2,4,6,11,13-hexaen-8-yl]-N-[4-(difluoromethyl)phenyl]acetamide]"
39.8 to 100,39.8 to 100,"CC1C(=O)N(CC(=O)Nc2ccc(Cl)c(F)c2)c2cc(Cl)cc(F)c2-c2ncncc21 (single isomer, unassigned) [#418, 2-[9-chloro-11-fluoro-5-methyl-6-oxo-5H-pyrimido[5,4-d][1]benzazepin-7-yl]-N-(4-chloro-3-fluoro-phenyl)acetamide]"
15.8 to 39.8,< 15.8,"CC1C(=O)N(CC(=O)Nc2ccc(Cl)c(F)c2)c2ccnc(F)c2-c2cc(F)cnc21 (single isomer, unassigned) [#419, N-(4-chloro-3-fluoro-phenyl)-2-[3,14-difluoro-10-methyl-9-oxo-4,8,12-triazatricyclo[9.4.0.0^2,7]pentadeca-1(15),2,4,6,11,13-hexaen-8-yl]acetamide]"
< 15.8,< 15.8,"Cc1cc2c(cc1C#N)-c1cc(F)cnc1C(C)C(=O)N2CC(=O)Nc1ccc(C(F)F)cc1 (single isomer, unassigned) [#420, 2-[10-cyano-2-fluoro-5,9-dimethyl-6-oxo-5H-pyrido[2,3-d][1]benzazepin-7-yl]-N-[4-(difluoromethyl)phenyl]acetamide]"
< 15.8,< 15.8,"Cc1cc2c(c(Cl)n1)-c1cc(F)cnc1C(C)C(=O)N2CC(=O)Nc1ccc(C(C)(F)F)cc1 (single isomer, unassigned) [#423, 2-(3-chloro-14-fluoro-5,10-dimethyl-9-oxo-4,8,12-triazatricyclo[9.4.0.0^2,7]pentadeca-1(11),2,4,6,12,14-hexaen-8-yl)-N-[4-(1,1-difluoroethyl)phenyl]acetamide]"
15.8 to 39.8,15.8 to 39.8,"Cc1cc2c(c(Cl)n1)-c1cc(F)cnc1C(C)C(=O)N2CC(=O)Nc1ccc(C(F)(F)F)cn1 (single isomer, unassigned) [#424, 2-(3-chloro-14-fluoro-5,10-dimethyl-9-oxo-4,8,12-triazatricyclo[9.4.0.0^2,7]pentadeca-1(11),2,4,6,12,14-hexaen-8-yl)-N-[5-(trifluoromethyl)-2-pyridyl]acetamide]"
100 to 501,39.8 to 100,"Cc1cc2c(cc1C)N(CC(=O)Nc1ccc(Cl)c(F)c1)C(=O)Cc1cccnc1-2 [#1, N-(4-chloro-3-fluoro-phenyl)-2-(9,10-dimethyl-6-oxo-5-H-pyrido[3,2-d][1]benzazepin-7-yl)acetamide]"
100 to 501,15.8 to 39.8,"Cc1cc2c(cc1C)N(CC(=O)Nc1ccc(Cl)c(F)c1)C(=O)Cc1ccncc1-2 [#2, N-(4-chloro-3-fluoro-phenyl)-2-(9,10-dimethyl-6-oxo-5H-pyrido[4,3-d][1]benzazepin-7-yl)acetamide]"
100 to 501,39.8 to 100,"Cc1cc2c(cc1C)N(CC(=O)Nc1ccc(Cl)c(F)c1)C(=O)Cc1ncccc1-2 [#3, N-(4-chloro-3-fluoro-phenyl)-2-(9,10-dimethyl-6-oxo-5-H-pyrido[2,3-d][1]benzazepin-7-yl)acetamide]"
100 to 501,100 to 501,"Cc1ccc2c(n1)CC(=O)N(CC(=O)Nc1ccc(Cl)c(F)c1)c1cc(C)c(C)cc1-2 [#4, N-(4-chloro-3-fluoro-phenyl)-2-(3,9,10-trimethyl-6-oxo-5-H-pyrido[2,3-d][1]benzazepin-7-yl)acetamide]"
100 to 501,39.8 to 100,"Cc1cc2c(cc1C)-n1nccc1CC(=O)N2CC(=O)Nc1ccc(C(F)(F)F)cc1 [#5, 2-(8,9-dimethyl-5-oxo-4H-pyrazolo[5,1-d][1,5]benzodiazepin-6-yl)-N-[4-(trifluoromethyl)phenyl]acetamide]"

# Reference: patent US20260217708A1, “FUSED BENZAZEPINE DERIVATIVES FOR USE IN THE TREATMENT OF CANCER AND EPILEPSY” (UCB BIOPHARMA SRL, priority 2023, published 2026)
